Results reported in ChEMBL document CHEMBL1148229, “Synthesis of a novel intercalator based on 2,2'-binaphthalene bearing dimethylammonium groups” (Bioorg Med Chem Lett, 2004).

What was measured:
Nucleic Acid [1] = assay: Intrinsic association constant for DNA; format: nucleic-acid assay, Bos taurus
Nucleic Acid [2] = assay: Apparent association constant for DNA; format: nucleic-acid assay, Bos taurus
Nucleic Acid [3] = assay: Melting temperature (Tm) of DNA in the absence of the compound; format: functional; settings: Bos taurus
[4] = Concentration of compound required for reduction of the fluorescence of ethidium bromide; format: functional
Nucleic Acid [5] = assay: Melting temperature (Tm) of DNA in the presence of compound (5 uM); format: functional; settings: Bos taurus

Row | SMILES | Ki (Nucleic Acid [1]) [M⁻¹] | Ki (Nucleic Acid [2]) [M⁻¹] | Tm (Nucleic Acid [3]) [°C] | C50 [4] [µM] | Tm (Nucleic Acid [5]) [°C]
1 | CNc1ccc2ccccc2c1 | 2200 | – | – | – | –
2 | CN(C)Cc1cccc2ccc(-c3ccc4cccc(CN(C)C)c4c3)cc12 | 800000 | 100000 | 75 | 7.2 | 81.2
3 | CC[n+]1c(-c2ccccc2)c2cc(N)ccc2c2ccc(N)cc21.[Br-] [HOMIDIUM BROMIDE] | 360000 | – | – | – | –
